Results published in patent US20130171158A1, “TREATMENT OF ABNORMALITIES OF GLUCOSE METABOLISM WITH AN ANTAGONIST OF INHIBITOR OF DIFFERENTIATION 1” (GARVAN INSTITUTE OF MEDICAL RESEARCH, priority 2010, published 2013).

Tested on: MIN6 cells
Assay: Insulin secretion assay in MIN6 cells treated with palmitate with or without Cannabidiol
Type: cell-based, mouse
Settings: 10 μM Cannabidiol, 0.4 mM palmitate coupled to 0.92% BSA for 48 h; 2.8 or 25 mM glucose for 1 h
Description: FIG. 11 is a graphical represenatation showing that an inhibitor of Id1 expression (Cannabidiol) protects MIN6 beta cells against lipid (palmitate)-induced insulin secretory dysfunction. Cells were treated with either 0.92% BSA or 0.92% BSA coupled to 0.4 mM palmitate for 48 h, in combination with the absence or presence of 10 μM Cannabidiol. Insulin secretion assay was performed. After 30-min preincubation in KRB medium containing 2.8 mM glucose, the cells were incubated in KRB medium containing either 2.8 mM glucose (clear bars) or 25 mM glucose (dark bars) for 1 h. Medium was taken to determine levels of insulin secretion. Insulin secretion expressed as fold change compared with Control cells incubated with 25 mM glucose. Results are means±SE. The MIN6 cell line was also used to examine the effects of inhibition of Id1 on lipid-induced insulin secretory dysfunction. MIN6 cells were grown in DMEM. Cells were seeded at 2×10^5 cells per well in 24-well plates. Cells were treated with either 0.92% BSA or 0.92% BSA coupled to 0.4 mM palmitate for 48 h, in combination with the absence or presence of 10 μM Cannabidiol. After chronic incubation, cells were washed in KRB buffer containing 2.8 mM glucose, and then they were preincubated for a further 30 min in 0.5 ml of the same medium at 37° C. […]

Question: With `C=C(C)[C@@H]1CCC(C)=C[C@H]1c1c(O)cc(CCCCC)cc1O` [Cannabidiol] as the compound, how does the “protection against palmitate-induced insulin secretory dysfunction” value read?
Answer: protected the cells against palmitate-induced insulin secretory dysfunction
